Source: paper PMC3171627 (Bioorganic & medicinal chemistry letters, 2011)

How the values were obtained:
CB2 receptor = CB2 receptor (Mus musculus, UniProt P47936); experiment: visualization of CB2 receptor binding by CD4+ T cells, confocal microscopy; format: cell-based; details: 5 µM, on ice for 30 minutes, T cells from peripheral lymph nodes of BALB/C mice
CB1 = CB1 (Homo sapiens, UniProt P21554); details: GTPγ[35S] assay; antagonist series; cited from earlier work
CB2 = details: read-out: CB2 functional activity EC50; GTPγ[35S] assay; antagonist series; cited from earlier work

Sequence of CB2 receptor (P47936 whole entry): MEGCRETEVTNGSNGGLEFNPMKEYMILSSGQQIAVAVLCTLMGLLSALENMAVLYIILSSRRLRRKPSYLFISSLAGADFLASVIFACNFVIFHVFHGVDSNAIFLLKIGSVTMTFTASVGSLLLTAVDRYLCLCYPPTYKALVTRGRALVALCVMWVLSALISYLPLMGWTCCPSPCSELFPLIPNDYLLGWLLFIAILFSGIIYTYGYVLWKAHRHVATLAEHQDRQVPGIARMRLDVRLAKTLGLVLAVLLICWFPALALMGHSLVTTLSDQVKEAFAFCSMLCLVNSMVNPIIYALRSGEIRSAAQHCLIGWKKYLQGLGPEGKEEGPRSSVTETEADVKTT
Sequence of CB1 (P21554 whole entry, species assumed): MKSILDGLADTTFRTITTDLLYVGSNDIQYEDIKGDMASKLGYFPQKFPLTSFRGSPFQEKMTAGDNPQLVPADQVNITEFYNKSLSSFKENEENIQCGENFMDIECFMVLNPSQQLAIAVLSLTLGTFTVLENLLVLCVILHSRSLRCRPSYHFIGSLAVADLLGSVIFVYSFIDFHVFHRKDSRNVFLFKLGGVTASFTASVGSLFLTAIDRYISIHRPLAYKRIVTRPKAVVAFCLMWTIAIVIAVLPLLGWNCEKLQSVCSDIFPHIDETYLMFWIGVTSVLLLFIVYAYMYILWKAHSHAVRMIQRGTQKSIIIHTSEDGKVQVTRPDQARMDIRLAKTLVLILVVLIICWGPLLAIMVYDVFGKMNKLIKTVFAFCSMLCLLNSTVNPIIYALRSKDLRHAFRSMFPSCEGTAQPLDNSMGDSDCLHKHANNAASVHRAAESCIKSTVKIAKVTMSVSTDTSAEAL

SMILES: CCCCCN1C(=O)/C(=N\NC(=O)CN(C)c2ccc([N+](=O)[O-])c3nonc23)c2ccc(OC)cc21 [Compound 6]
- staining of CD4+ T cells (CB2 receptor): stained the CD4^+ T cells

SMILES: CCCCCN1C(=O)/C(=N\NC(=O)CN2CCOCC2)c2ccc(OC)cc21 [Compound 5]
- CB1 activity (CB1): did not show any CB1 functional activity
- EC50 (CB2): 13.3 nM
